In PMC7774954, “Interactomic affinity profiling by holdup assay: Acetylation and distal residues impact the PDZome-binding specificity of PTEN phosphatase” (PLoS ONE, 2020):

Key:
DLG4 PDZ 3 = target: T1, DLG4 PDZ 3 (Homo sapiens, UniProt P78352); assay: Holdup assay, DLG4-3; format: binding
T1 construct: made in house; host or cells: E. coli
Protocol: (§1) The holdup assay was performed on a Tecan freedom Evo200 robot with 384-well plates in singlicate for the three 11-mer PTEN variants and the 13-mer PTEN peptide as described in [31, 32]. Briefly, prior to interaction assay, 2.5 μL of streptavidin resin was saturated in each well with 20 μL of biotinylated PBM peptides (42 μM) and then washed twice with an excess of free biotin, while the reference resin was incubated only with biotin. Right before the holdup experiment, the PDZ library was spiked with an internal standard of lysozyme. Then, the biotin- or PBM-saturated resin was incubated, each in a distinct well of a 384-well plate, with complete cell lysates diluted so that the concentration of the tag-PDZ present in the crude extract is adjusted at 4 μM. After a sufficient time to reach complex equilibrium (15 min.), a fast and mild filtration step is performed and the tag-PDZ concentrations were measured by capillary electrophoresis instrument (LabChip GXII, PerkinElmer, Massachusets, USA). Standard markers were used to convert migration time into molecular weight on the LabChip software and inappropriate molecular weight markers were corrected or excluded.
(§2) For filtered data, the BI was extracted with the following equation (Eq 1) that estimates the depleted fraction after superimposition of the sample and reference electropherograms: BI=Iref−Ilig/Iref (1) where Iref and Ilig are the intensities of the tag-PDZ peaks measured, for each PDZ domain/PBM peptide interaction pair, in the biotin reference and the PBM electropherograms, respectively.
(§3) BIs were transformed into dissociation constants (KD) using the following formula: KD=([PDZtot]−BI·[PDZtot])·([PBMtot]−BI·[PDZtot])/BI·[PDZtot] (2) where [PDZtot] and [PBMtot] correspond to the total concentrations of the PDZ domain (usually around 4 μM) and the PBM peptide used during the assay. Since the PBMtot concentration in the resin during the holdup assay parameter may differ from one peptide to another and remains unknown, it is impossible to directly convert BI values into KD constants. We systematically determined the KD constants for a subset of PDZ/PBM pairs by competitive FP. […] For each PBM, the average peptide concentration was calculated after outlier rejection based on the absolute distances from the median as compared to three times the standard deviation (3σ rule), with never more than 2 values rejected.

MAGI1 PDZ 2 = target: T2, MAGI1 PDZ 2 (Homo sapiens, UniProt Q96QZ7); assay: Holdup assay, MAGI1-2; format: binding
T2 construct: made in house; host or cells: E. coli
Protocol: as §1, §2
BIs were transformed into dissociation constants (KD) using the following formula: KD=([PDZtot]−BI·[PDZtot])·([PBMtot]−BI·[PDZtot])/BI·[PDZtot] […] We systematically determined the KD constants for a subset of PDZ/PBM pairs by competitive FP. […] For each PBM, the average peptide concentration was calculated after outlier rejection based on the absolute distances from the median as compared to three times the standard deviation (3σ rule), with never more than 2 values rejected.

MAGI2 PDZ 3 = target: T3, MAGI2 PDZ 3 (Homo sapiens, UniProt Q86UL8); assay: Holdup assay, MAGI2-3; format: binding
T3 construct: made in house; host or cells: E. coli
Protocol: as §1, §2, §3

NHERF1 PDZ 1 = target: T4, NHERF1 PDZ 1 (Homo sapiens, UniProt O14745); assay: Holdup assay, NHERF1-1; format: binding
T4 construct: NHERF1-1 as the first PDZ domain of the NHERF1 protein; made in house; host or cells: E. coli
T4 sequence (O14745 14-94 limits assumed): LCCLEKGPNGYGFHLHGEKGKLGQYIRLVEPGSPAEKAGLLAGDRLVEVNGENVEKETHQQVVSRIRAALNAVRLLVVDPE
Protocol: as §1, §2, §3

NHERF2 PDZ 2 = target: T5, NHERF2 PDZ 2 (Homo sapiens, UniProt Q15599); assay: Holdup assay, NHERF2-2; format: binding
T5 construct: made in house; host or cells: E. coli
Protocol: as §1, §2, §3

AHNAK2-1 = assay: Holdup assay, AHNAK2-1; format: binding, human
DLG2-1 = DLG2-1 (Homo sapiens, UniProt Q15700); assay: Holdup assay, DLG2-1; format: binding; settings: DLG2-1
DLG4-2 = DLG4-2 (Homo sapiens, UniProt P78352); assay: Holdup assay, DLG4-2; format: binding
DLG5-2 = assay: Holdup assay, DLG5-2; format: binding, human
DLG5-3 = assay: Holdup assay, DLG5-3; format: binding, human
DVL1-1 = assay: Holdup assay, DVL1-1; format: binding, human
DVL3-1 = assay: Holdup assay, DVL3-1; format: binding, human
FRMPD2-3 = assay: Holdup assay, FRMPD2-3; format: binding, human
GORASP2-1 = GORASP2-1 (Homo sapiens, UniProt Q9H8Y8); assay: Holdup assay, GORASP2-1; format: binding
GRIP1-3 = assay: Holdup assay, GRIP1-3; format: binding, human
GRIP2-1 = assay: Holdup assay, GRIP2-1; format: binding, human
GRIP2-5 = assay: Holdup assay, GRIP2-5; format: binding, human
IL16-3 = assay: Holdup assay, IL16-3; format: binding, human
INADL-7 = INADL-7 (Homo sapiens, UniProt Q8NI35); assay: Holdup assay, INADL-7; format: binding
INADL-8 = INADL-8 (Homo sapiens, UniProt Q8NI35); assay: Holdup assay, INADL-8; format: binding
INTU-1 = assay: Holdup assay, INTU-1; format: binding, human
LIMK1-1 = assay: Holdup assay, LIMK1-1; format: binding, human
LIN7A-1 = assay: Holdup assay, LIN7A-1; format: binding, human
LNX1-3 = assay: Holdup assay, LNX1-3; format: binding, human
MAGI1-1 = assay: Holdup assay, MAGI1-1; format: binding, human
MAGI1-5 = MAGI1-5 (Homo sapiens, UniProt Q96QZ7); assay: Holdup assay, MAGI1-5; format: binding
Chain of MAGI1-5 (Q96QZ7 970-1066): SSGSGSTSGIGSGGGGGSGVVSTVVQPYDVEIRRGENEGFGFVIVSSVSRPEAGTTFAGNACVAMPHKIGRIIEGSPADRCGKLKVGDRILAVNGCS

T5 sequence (Q15599 150-230 limits assumed): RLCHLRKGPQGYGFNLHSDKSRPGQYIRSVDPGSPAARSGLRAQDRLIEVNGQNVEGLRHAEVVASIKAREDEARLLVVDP
Chain of INADL-8 (Q8NI35 whole entry): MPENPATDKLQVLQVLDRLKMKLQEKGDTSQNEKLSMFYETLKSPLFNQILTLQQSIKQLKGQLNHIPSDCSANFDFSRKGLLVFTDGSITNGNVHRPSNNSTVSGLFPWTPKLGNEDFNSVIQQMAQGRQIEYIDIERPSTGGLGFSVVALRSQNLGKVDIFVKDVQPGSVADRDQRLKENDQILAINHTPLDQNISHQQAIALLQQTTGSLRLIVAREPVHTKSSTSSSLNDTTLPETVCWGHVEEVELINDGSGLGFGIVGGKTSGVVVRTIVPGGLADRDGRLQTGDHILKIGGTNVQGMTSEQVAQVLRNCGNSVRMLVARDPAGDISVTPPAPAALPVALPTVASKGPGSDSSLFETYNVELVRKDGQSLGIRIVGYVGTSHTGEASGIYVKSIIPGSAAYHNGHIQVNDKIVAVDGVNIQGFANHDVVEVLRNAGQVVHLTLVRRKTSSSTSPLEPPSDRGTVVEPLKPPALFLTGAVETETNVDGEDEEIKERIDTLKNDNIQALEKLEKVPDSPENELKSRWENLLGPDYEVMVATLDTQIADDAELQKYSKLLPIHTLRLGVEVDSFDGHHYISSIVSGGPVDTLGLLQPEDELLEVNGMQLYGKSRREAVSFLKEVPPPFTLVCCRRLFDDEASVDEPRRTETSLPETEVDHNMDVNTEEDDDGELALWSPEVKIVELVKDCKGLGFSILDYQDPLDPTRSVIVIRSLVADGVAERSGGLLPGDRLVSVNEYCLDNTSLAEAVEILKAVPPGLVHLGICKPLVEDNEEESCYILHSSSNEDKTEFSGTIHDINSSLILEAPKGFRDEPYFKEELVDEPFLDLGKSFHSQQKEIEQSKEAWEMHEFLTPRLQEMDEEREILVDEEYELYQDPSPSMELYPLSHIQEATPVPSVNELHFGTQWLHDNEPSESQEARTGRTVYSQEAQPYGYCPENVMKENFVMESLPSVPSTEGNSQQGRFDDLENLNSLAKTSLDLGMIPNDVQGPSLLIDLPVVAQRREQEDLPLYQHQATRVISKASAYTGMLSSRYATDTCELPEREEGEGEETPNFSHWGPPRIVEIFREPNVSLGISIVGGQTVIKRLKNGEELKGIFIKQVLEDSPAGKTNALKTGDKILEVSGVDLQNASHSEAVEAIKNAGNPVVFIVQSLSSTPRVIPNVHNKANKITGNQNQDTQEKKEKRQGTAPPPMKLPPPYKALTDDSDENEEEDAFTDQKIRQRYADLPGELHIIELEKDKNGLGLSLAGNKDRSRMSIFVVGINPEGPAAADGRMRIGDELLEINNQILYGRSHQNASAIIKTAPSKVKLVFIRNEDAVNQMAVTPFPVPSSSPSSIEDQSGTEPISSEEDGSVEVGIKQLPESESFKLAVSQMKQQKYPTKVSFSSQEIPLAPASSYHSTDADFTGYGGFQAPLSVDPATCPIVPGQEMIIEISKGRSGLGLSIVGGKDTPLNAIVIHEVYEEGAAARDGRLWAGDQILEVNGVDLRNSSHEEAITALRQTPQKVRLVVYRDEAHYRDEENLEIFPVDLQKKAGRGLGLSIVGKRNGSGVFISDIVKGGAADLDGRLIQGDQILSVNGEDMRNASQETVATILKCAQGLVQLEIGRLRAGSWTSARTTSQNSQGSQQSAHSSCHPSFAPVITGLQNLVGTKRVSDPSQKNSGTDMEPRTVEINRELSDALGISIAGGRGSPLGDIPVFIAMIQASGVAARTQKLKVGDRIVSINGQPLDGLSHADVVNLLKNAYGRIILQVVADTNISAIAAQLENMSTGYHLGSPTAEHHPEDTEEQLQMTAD
T3 sequence (Q86UL8 605-683 limits assumed): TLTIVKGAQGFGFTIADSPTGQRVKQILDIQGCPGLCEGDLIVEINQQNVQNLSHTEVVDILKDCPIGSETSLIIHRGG
T1 sequence (P78352 313-393 limits assumed): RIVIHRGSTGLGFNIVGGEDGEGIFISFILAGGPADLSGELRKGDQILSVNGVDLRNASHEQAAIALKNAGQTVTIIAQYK
T2 sequence (Q96QZ7 472-554 limits assumed): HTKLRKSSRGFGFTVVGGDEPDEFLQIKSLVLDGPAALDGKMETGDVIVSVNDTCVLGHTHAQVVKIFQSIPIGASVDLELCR
Chain of INADL-7 (Q8NI35 whole entry): as the sequence (Q8NI35 whole entry) above
Chain of DLG4-2 (P78352 160-246): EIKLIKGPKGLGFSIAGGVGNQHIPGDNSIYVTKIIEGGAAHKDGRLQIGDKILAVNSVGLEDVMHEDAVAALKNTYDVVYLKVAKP

Which results are given for `CC[C@H](C)[C@H](NC(=O)[C@H](CCC(N)=O)NC(=O)[C@@H](NC(=O)[C@H](Cc1c[nH]cn1)NC(=O)[C@H](CCC(N)=O)NC(=O)[C@H](CC(=O)O)NC(=O)[C@H](CCC(=O)O)NC(=O)[C@H](CC(=O)O)NC(=O)CCC(=O)NCCCOCCOCCOCCCNC(=O)CCCC[C@@H]1SC[C@@H]2NC(=O)N[C@@H]21)[C@@H](C)O)C(=O)N[C@H](C(=O)N[C@@H](CCCCN)C(=O)N[C@H](C(=O)O)C(C)C)[C@@H](C)O` [PTEN_11]?
BI (DLG4 PDZ 3): -0.018; BI (MAGI1 PDZ 2): 0.077; Kd (MAGI2 PDZ 3): 47.2 µM; BI (MAGI2 PDZ 3; MAGI2-3): 0.407; Kd (NHERF1 PDZ 1): 32.8 µM; BI (NHERF1 PDZ 1; PDZ domain NHERF1-1): 0.494; Kd (NHERF2 PDZ 2): 35.3 µM; BI (NHERF2 PDZ 2; PDZ domain NHERF2-2 (gene MPDZ, 9)): 0.476; BI (AHNAK2-1): -0.026; LogKD (AHNAK2-1): 3.519; BI (DLG2-1): 0.034; LogKD (DLG2-1): 3.519; BI (DLG4-2): 0.124; BI (DLG5-2): 0.001; LogKD (DLG5-2): 3.519; BI (DLG5-3): 0.034; LogKD (DLG5-3): 3.519; BI (DVL1-1): -0.007; LogKD (DVL1-1): 3.519; BI (DVL3-1): 0.012; LogKD (DVL3-1): 3.519; BI (FRMPD2-3): -0.046; LogKD (FRMPD2-3): 3.519; Kd (GORASP2-1): 48 µM; BI (GORASP2-1; GORASP2-1): 0.403; BI (GRIP1-3): -0.015; LogKD (GRIP1-3): 3.519; BI (GRIP2-1): -0.003; LogKD (GRIP2-1): 3.519; BI (GRIP2-5): 0.055; LogKD (GRIP2-5): 3.519; BI (IL16-3): 0.004; LogKD (IL16-3): 3.519; BI (INADL-7): 0.136; BI (INADL-8): 0.388; Kd (INADL-8): 51.2 µM; BI (INTU-1): -0.089; LogKD (INTU-1): 3.519; BI (LIMK1-1): -0.066; LogKD (LIMK1-1): 3.519; BI (LIN7A-1): -0.017; LogKD (LIN7A-1): 3.519; BI (LNX1-3): -0.02; LogKD (LNX1-3): 3.519; BI (MAGI1-1): 0.001; LogKD (MAGI1-1): 3.519; BI (MAGI1-5): 0.536; Kd (MAGI1-5): 27.6 µM
